Peptide text beside a SMILES is read from it.
Structure (SMILES)	logP
CCN(CC)CCNC(=O)c1cc(I)c(N)cc1OC	3.09
O=C(O)Cc1ccccc1O	0.85
O=CC(Cl)(Cl)Cl	0.99
COc1cccc2cccnc12	1.84
O=C1CCC(=O)N1c1cccc(I)c1	1.39
Cn1cccc1C=NNC(=S)Nc1ccccc1	3.64
CC(=O)CCC(C)=O	-0.27
Cc1nc(N)nc(N)c1C12CC3CC(CC(C3)C1)C2	2.64
CC(O)C(F)(F)F (configuration not stated)	0.71
c1ccc2c(c1)cnn2C12CC3CC(CC(C3)C1)C2	4.33
NC(=O)Cn1ccnc1[N+](=O)[O-]	-1.22
NNC(=O)c1cccc(Br)c1	1.26
C=CC=O	-0.01
NC(=O)c1ccco1	-0.11
O=C1c2ccccc2C(=O)N1CCCCBr	2.96
O=C(O)C1c2ccccc2Oc2ccccc21	2.23
O=S(=O)(O)c1ccc2ccccc2c1	0.63
CN(C)C(N(C)C)=S(I)c1ccc(Cl)c(Cl)c1Cl (configuration not stated)	0.95
NCc1ccccn1	-0.21
Oc1ccc2ccccc2c1	2.7
CCCCCCCOC(=O)c1ccc(O)cc1	4.83

Structure (SMILES)	logP
Cc1ccccc1C	3.12
CBr	1.19
O=C(CN1CCCCC1)Nc1cccc(F)c1	2.85
CCOP(=S)(Oc1ccc(C#N)cc1)c1ccccc1 (configuration not stated)	4.29
Cc1cc(C(=O)NN)ccn1	-0.37
NC(=O)CCc1ccccc1	0.91
O=NN(CCCl)C(=O)NC1CC2CCC1C2 (configuration not stated)	2.98
NCCc1ccccc1	1.41
Cc1c[nH]c2ccccc12	2.6
O=C(O)[C@@H]1CCCN1	-2.54
O=S1(=O)OCC2C(CO1)C1(Cl)C(Cl)=C(Cl)C2(Cl)C1(Cl)Cl (configuration not stated)	3.66
C1CCNC1	0.46
CC(Br)C(=O)O (configuration not stated)	0.92
S=C=NCCc1ccccc1	3.47
COP(=S)(OC)Oc1ccc([N+](=O)[O-])cc1Cl	3.58
c1ccc2sccc2c1	3.12
NC(C(=O)O)c1ccccc1 (configuration not stated)	-1.7
CCCS(=O)(=O)CCn1c([N+](=O)[O-])cnc1C	0.23
ON=Cc1ccncc1	0.77
CCCC[n+]1ccccc1.[Br-]	-2.69
C[C@@H]1C[C@@]2(C)[C@@H](CC[C@@H]3[C@@H]2CC[C@]2(C)[C@@H](O)CC[C@@H]32)CC1=O	3.99

Structure (SMILES)	logP
O=C(CCCN1CCC(n2c(=O)[nH]c3ccccc32)CC1)c1ccc(F)cc1	3.91
Nc1cc[nH]c(=O)n1	-1.73
COc1cccc(OC)c1C(=O)O	0.66
CCOP(=O)(N=C1SCC(C)S1)OCC (configuration not stated)	1.04
O=C(O)Cc1ccccc1Oc1ccc(Cl)cc1Cl	4.8
O=C1CN=C(c2ccccc2C(F)(F)F)c2ccccc2N1	2.47
COC(=O)c1cccc(S(I)=C(N(C)C)N(C)C)c1 (configuration not stated)	-0.75
CC(C)(C)c1cccc(C(C)(C)C)c1O	4.92
CNP(=O)(OC)Oc1ccc(OC)cc1 (configuration not stated)	1.06
O=C(CN1CCCCC1)Nc1ccc(F)cc1	2.7
Brc1cccnc1	1.6
CC(=O)N[C@@H](C)C(=O)N[C@@H](CC(C)C)C(=O)N[C@H](C(N)=O)C(C)C (Ac-Ala-Leu-Val-NH2)	-0.14
CC(=O)Oc1ccc(N)cc1	0.45
COC(=O)C(=O)OC	-0.17
Cc1cc(Cl)ccc1O	2.78
Cc1c2ccccc2c(C)c2c1ccc1ccccc12	5.8
O=C(CO)NCc1ccccc1	0.55
CCCCCCNC(=O)c1ccc(S(N)(=O)=O)cc1	2.05
Cn1c(N)nc2ccc(C#N)cc21	1.29
O=C(Nc1ccccc1)c1cccnc1	1.73
O=C1OC(=O)c2ccccc21	1.6

Structure (SMILES)	logP
CNC(C)Cc1ccccc1 (configuration not stated)	2.07
Cc1[nH]cnc1CSCCNC(=N)NCCSCc1nc[nH]c1C	1.34
O=C(O)Cc1ccccc1Nc1c(Cl)cccc1Br	4.64
COP(=S)(Oc1cc(Cl)c(Br)cc1Cl)c1ccccc1 (configuration not stated)	6.31
CC(C)Nc1nc(Cl)nc(NC(C)C)n1	2.93
Brc1ccc2cccnc2c1	2.92
Cc1c(Cl)cccc1Nc1ccccc1C(=O)O	5.17
O=C(O)c1ccc(O)cc1	1.58
COC(=O)C(C)NC(C)=O (configuration not stated)	-0.57
ClCCOCCCl	1.29
CC1(C)S[C@@H]2[C@H](NC(=O)COc3ccccc3)C(=O)N2[C@H]1C(=O)O	2.09
Oc1ccc(O)c(Cl)c1	1.4
CCc1ccc(O)cc1	2.58
CCN1CC(C(O)C(CC2CCCCC2)NC(=O)C(Cc2c[nH]cn2)NC(=O)C(CC(=O)N2CC(OCOCCOC)C(OCOCCOC)C2)Cc2ccccc2)OC1=O (configuration not stated)	1.87
Cc1cc2nccnc2cc1C	2.29
NC(=O)CCN1CCc2cccc(Cl)c2CC1	1.64
CCCCCCC1CCC(=O)O1 (configuration not stated)	2.72
COC(=O)Cc1cccs1	1.51
O=[N+]([O-])c1ccc2oncc2c1	1.46

— the OPERA property sets (Mansouri et al. 2018)
